Results: patent US20060281714A1, “Combinations of a cathepsin k inhibitor and a bisphosphonate in the treatment of bone metastasis, tumor growth and tumor-induced bone loss” (priority 2003, published 2006)

Test system: 4T1Luc2000 mouse mammary carcinoma cells
Assay: Osteolytic activity in the 4T1Luc2000 assay (intra-tibial injection of tumor cells)
Assay type: in vivo, Athymic Balb\c nude, female mice
Conditions: 50 mg/kg p.o. twice daily, in combination with Zoledronic Acid 100 ug/kg s.c. twice weekly; compared with Zoledronic Acid single treatment
Description: Intra-Tibial Injection of 4T1Luc2000 Mouse Mammary Carcinoma Cells:
Athymic Balb\c nude, female mice (Spezialzuchten, Stein, Switzerland) are anaesthetized by i.p. administration of […] ketarom: a mixture of 100 mg/kg Ketalar® 50 (Parker-Davis, Zurich, Switzerland) and 10 mg/kg xylazine (Rompun®, Bayer, Lyssach, Switzerland). Using a 30 gauze needle a cell suspension of […] in […] of HBSS (Invitrogen, Basel Switzerland) is injected through the articular cartilage and epiphysis into the tibia. In total, 48 animals in 6 groups, 8 animals each, are used in this study. […]
Peripheral Quantitative Computed Tomography (pQCT), End-Point Determination:
Total, cortical, and cancellous bone mass and geometry are monitored using an XCT-Research SA+ (Stratec-Norland, Pforzheim, Germany) fitted with a 0.5 mm collimator. […] Slices located 2, 3, 4, and 5 mm distal from the intercondylar tubercle in the proximal tibia metaphysis are analysed. […]
3D structural parameters of cancellous bone are measured non-invasively by microCT as described. […] A region of 200 slices at a position of 1 mm below the growth plate (secondary spongiosa) corresponding to the site of injection of the 4T1luc2000 cells is measured at a nominal resolution of approximately 15 μm (FIG. 3). […]
All results from the bone studies are expressed as mean *standard error (SEM). […]

Q: With `CCCN1CCC(c2ccc(C(=O)NC3(C(=O)NCC#N)CCCCC3)cc2)CC1` [N-[1-(Cyanomethyl-carbamoyl)-cyclohexyl]-4-(1-propyl-piperidin-4-yl)-benzamide] as the compound, how does the anti-osteolytic activity read?
A: The anti-osteolytic activity was “additive anti-osteolytic activity which is superior to Zoledronic Acid single treatment”.
